IC50 data for 27 compounds are collected here from patent US8624040B2, “Substituted hydroxamic acids and uses thereof” (Millennium Pharmaceuticals, Inc., priority 2009, dated 2014).

The target of this test is T1, purified human HDAC6 (Homo sapiens, UniProt Q9UBN7).
T1 construct: purchased BPS Bioscience 5006
T1 sequence (Q9UBN7 1-1215): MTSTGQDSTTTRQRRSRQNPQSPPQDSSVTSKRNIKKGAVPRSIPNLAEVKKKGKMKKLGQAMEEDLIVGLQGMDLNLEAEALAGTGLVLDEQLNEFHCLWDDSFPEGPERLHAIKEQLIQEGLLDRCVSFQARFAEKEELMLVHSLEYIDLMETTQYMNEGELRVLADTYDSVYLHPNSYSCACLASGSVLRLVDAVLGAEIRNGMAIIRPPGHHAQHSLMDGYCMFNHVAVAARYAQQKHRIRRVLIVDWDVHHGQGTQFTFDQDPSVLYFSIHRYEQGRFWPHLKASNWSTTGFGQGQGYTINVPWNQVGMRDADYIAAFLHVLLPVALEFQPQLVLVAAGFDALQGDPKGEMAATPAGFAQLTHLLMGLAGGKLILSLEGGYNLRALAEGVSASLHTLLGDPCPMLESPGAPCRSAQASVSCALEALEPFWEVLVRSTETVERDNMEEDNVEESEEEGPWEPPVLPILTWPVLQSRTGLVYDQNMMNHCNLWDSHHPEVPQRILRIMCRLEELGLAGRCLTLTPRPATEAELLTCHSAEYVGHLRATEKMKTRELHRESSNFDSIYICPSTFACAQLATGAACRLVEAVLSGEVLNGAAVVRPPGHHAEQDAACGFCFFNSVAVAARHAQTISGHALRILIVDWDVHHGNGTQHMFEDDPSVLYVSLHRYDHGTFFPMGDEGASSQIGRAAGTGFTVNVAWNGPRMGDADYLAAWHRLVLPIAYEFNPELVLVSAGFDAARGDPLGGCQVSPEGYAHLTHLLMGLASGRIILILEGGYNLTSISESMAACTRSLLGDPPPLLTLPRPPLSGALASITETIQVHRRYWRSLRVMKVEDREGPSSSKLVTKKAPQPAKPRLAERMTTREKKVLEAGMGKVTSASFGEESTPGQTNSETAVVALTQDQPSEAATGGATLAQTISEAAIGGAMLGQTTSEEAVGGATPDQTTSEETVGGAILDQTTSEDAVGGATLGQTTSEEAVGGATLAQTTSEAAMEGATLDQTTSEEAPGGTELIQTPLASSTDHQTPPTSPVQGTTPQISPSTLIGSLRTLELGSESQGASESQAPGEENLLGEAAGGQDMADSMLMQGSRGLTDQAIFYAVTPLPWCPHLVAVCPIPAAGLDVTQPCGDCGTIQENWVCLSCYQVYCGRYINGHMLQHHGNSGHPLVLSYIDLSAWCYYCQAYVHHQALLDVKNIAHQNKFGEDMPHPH
In words: HDAC6 Enzyme Assay. Format: biochemical. The following applies: enzyme inhibition, substrate Ac-Arg-Gly-Lys(Ac)-AMC, 1 hour at 30° C. Here is the method:
To measure the inhibition of HDAC6 activity, purified human HDAC6 (BPS Bioscience; Cat. No. 5006) is incubated with substrate Ac-Arg-Gly-Lys(Ac)-AMC peptide (Bachem Biosciences; Cat. No. I-1925) for 1 hour at 30° C. in the presence of test compounds or vehicle DMSO control. The reaction is stopped with the HDAC inhibitor trichostatin A (Sigma; Cat. No. T8552) and the amount of Arg-Gly-Lys-AMC generated is quantitated by digestion with trypsin (Sigma; Cat. No. T1426) and subsequent measurement of the amount of AMC released using a fluorescent plate reader (Pherastar; BMG Technologies) set at Ex 340 nm and Em 460 nm. Concentration response curves are generated by calculating the fluorescence increase in test compound-treated samples relative to DMSO-treated controls, and enzyme inhibition (IC50) values are determined from those curves.
For the compound `Cc1cnc(C(=O)N2CCc3sc(C(=O)NO)cc3C2)cn1` [Compound 29, N-hydroxy-5-(5-methylpyrazine-2-carbonyl)-4,5,6,7-tetrahydrothieno[3,2-c]pyridine-2-carboxamide], the half-maximal inhibitory concentration (IC50) (as a rule, the concentration needed to halve the response being measured) fell in the range of 50 to 100 nM. The result for `O=C(NO)c1cc2c(s1)CCN(C(=O)c1cccc3cccnc13)C2` [Compound 30, N-hydroxy-5-(quinolin-8-ylcarbonyl)-4,5,6,7-tetrahydrothieno[3,2-c]pyridine-2-carboxamide] reads less than 50 nM; that for `O=C(NO)c1cc2c(s1)CCN(C(=O)C1CCCCC1)C2` [Compound 31, 5-(cyclohexanecarbonyl)-N-hydroxy-4,5,6,7-tetrahydrothieno[3,2-c]pyridine-2-carboxamide], less than 50 nM; that for `COc1cc(OC)nc(-c2ccc(C(=O)N3CCc4sc(C(=O)NO)cc4C3)cc2)n1` [Compound 32, 5-(4-(4,6-dimethoxypyrimidin-2-yl)benzoyl)-N-hydroxy-4,5,6,7-tetrahydrothieno[3,2-c]pyridine-2-carboxamide], less than 50 nM. The result for `O=C(NO)c1cc2c(s1)CCN(C(=O)C13CC4CC(CC(C4)C1)C3)C2` [Compound 33, 5-(adamantan-1-ylcarbonyl)-N-hydroxy-4,5,6,7-tetrahydrothieno[3,2-c]pyridine-2-carboxamide] reads less than 50 nM; that for `O=C(NO)c1cc2c(s1)CCN(S(=O)(=O)c1ccc(C(F)(F)F)cc1)C2` [Compound 34, N-hydroxy-5-{[4-(trifluoromethyl)phenyl]sulfonyl}-4,5,6,7-tetrahydrothieno[3,2-c]pyridine-2-carboxamide], less than 50 nM. Then `O=C(NO)c1cc2c(s1)CN(C(=O)Nc1ccc(-c3ccccc3)s1)CC2` [Compound 40, N^2-hydroxy-N^6-(5-phenyl-2-thienyl)-4,7-dihydrothieno[2,3-c]pyridine-2,6(5H)-dicarboxamide], with less than 50 nM; and `O=C(NO)c1cc2c(s1)CN(C(=O)c1ccco1)CC2` [Compound 42, 6-(furan-2-carbonyl)-N-hydroxy-4,5,6,7-tetrahydrothieno[2,3-c]pyridine-2-carboxamide], with less than 50 nM; and `Cc1nc(C)c(CC(=O)N2CCc3cc(C(=O)NO)sc3C2)s1` [Compound 47, 6-[(2,4-dimethyl-1,3-thiazol-5-yl)acetyl]-N-hydroxy-4,5,6,7-tetrahydrothieno[2,3-c]pyridine-2-carboxamide], with 50 to 100 nM. `Cc1ncc(C(=O)N2CCc3cc(C(=O)NO)sc3C2)c(-c2ccccc2)n1` [Compound 48, N-hydroxy-6-(2-methyl-4-phenylpyrimidine-5-carbonyl)-4,5,6,7-tetrahydrothieno[2,3-c]pyridine-2-carboxamide] returned an IC50 of 50 to 100 nM. Then `Cc1cc(C(=O)N2CCc3cc(C(=O)NO)sc3C2)ccc1F` [Compound 51, 6-(4-fluoro-3-methylbenzoyl)-N-hydroxy-4,5,6,7-tetrahydrothieno[2,3-c]pyridine-2-carboxamide], with less than 50 nM; and `O=C(NO)c1cc2c(s1)CN(C(=O)Cc1cc(F)cc(F)c1)CC2` [Compound 52, 6-(2-(3,5-difluorophenyl)acetyl)-N-hydroxy-4,5,6,7-tetrahydrothieno[2,3-c]pyridine-2-carboxamide], with 50 to 100 nM. Then `O=C(NO)c1cc2c(s1)CN(C(=O)Nc1cccc(C(F)(F)F)c1)CC2` [Compound 54, N^2-hydroxy-N^6-[3-(trifluoromethyl)phenyl]-4,7-dihydrothieno[2,3-c]pyridine-2,6(5H)-dicarboxamide], with less than 50 nM; and `NC(=O)CSc1ccsc1C(=O)N1CCc2cc(C(=O)NO)sc2C1` [Compound 56, 6-({3-[(2-amino-2-oxoethyl)sulfanyl]-2-thienyl}carlbonyl)-N-hydroxy-4,5,6,7-tetrahydrothieno[2,3-c]pyridine-2-carboxamide], with greater than 1000 nM; and `Cc1noc(C)c1CC(=O)N1CCc2cc(C(=O)NO)sc2C1` [Compound 62, 6-(2-(3,5-dimethylisoxazol-4-yl)acetyl)-N-hydroxy-4,5,6,7-tetrahydrothieno[2,3-c]pyridine-2-carboxamide], with 50 to 100 nM. Consider `CC(C)(C)c1ccc(C(=O)N2CCc3cc(C(=O)NO)sc3C2)cc1` [Compound 64, 6-(4-tert-butylbenzoyl)-N-hydroxy-4,5,6,7-tetrahydrothieno[2,3-c]pyridine-2-carboxamide], for which the IC50 is less than 50 nM. Then `Cc1oc(-c2ccccc2)nc1CC(=O)N1CCc2cc(C(=O)NO)sc2C1` [Compound 65, N-hydroxy-6-[(5-methyl-2-phenyl-1,3-oxazol-4-yl)acetyl]-4,5,6,7-tetrahydrothieno[2,3-c]pyridine-2-carboxamide], with less than 50 nM; and `Cc1oc(C(C)(C)C)cc1C(=O)N1CCc2cc(C(=O)NO)sc2C1` [Compound 67, 6-(5-tert-butyl-2-methyl-3-furoyl)-N-hydroxy-4,5,6,7-tetrahydrothieno[2,3-c]pyridine-2-carboxamide], with less than 50 nM; and `Cc1nc(CC(=O)N2CCc3cc(C(=O)NO)sc3C2)cs1` [Compound 75, N-hydroxy-6-(2-(2-methylthiazol-4-yl)acetyl)-4,5,6,7-tetrahydrothieno[2,3-c]pyridine-2-carboxamide], with 50 to 100 nM.

Compound `O=C(NO)c1cc2c(s1)CN(C(=O)NC1CCCCC1)CC2` [Compound 76, N^6-cyclohexyl-N^2-hydroxy-4,7-dihydrothieno[2,3-c]pyridine-2,6(5H)-dicarboxamide] showed an IC50 of less than 50 nM.

`Cc1cccc(NC(=O)N2CCc3cc(C(=O)NO)sc3C2)c1` [Compound 80, N^2-hydroxy-N^6-(3-methylphenyl)-4,7-dihydrothieno[2,3-c]pyridine-2,6(5H)-dicarboxamide] gave a half-inhibitory concentration (IC50) of less than 50 nM. The result for `O=C(NO)c1cc2c(s1)CN(C(=O)c1cccc(O)n1)CC2` [Compound 81, N-hydroxy-6-[(6-hydroxypyridin-2-yl)carbonyl]-4,5,6,7-tetrahydrothieno[2,3-c]pyridine-2-carboxamide] reads 50 to 100 nM; that for `Cn1nc(C(C)(C)C)cc1C(=O)N1CCc2cc(C(=O)NO)sc2C1` [Compound 88, 6-[(3-tert-butyl-1-methyl-1H-pyrazol-5-yl)carbonyl]-N-hydroxy-4,5,6,7-tetrahydrothieno[2,3-c]pyridine-2-carboxamide], less than 50 nM. Then `O=C(NO)c1cc2c(s1)CN(C(=O)CSc1cccc(C(F)(F)F)c1)CC2` [Compound 89, N-hydroxy-6-({[3-(trifluoromethyl)phenyl]sulfanyl}acetyl)-4,5,6,7-tetrahydrothieno[2,3-c]pyridine-2-carboxamide], with less than 50 nM; and `Cc1ccoc1C(=O)N1CCc2cc(C(=O)NO)sc2C1` [Compound 94, N-hydroxy-6-(3-methyl-2-furoyl)-4,5,6,7-tetrahydrothieno[2,3-c]pyridine-2-carboxamide], with less than 50 nM. In turn, `O=C(NO)c1cc2c(s1)CN(C(=O)c1ccc3ncccc3c1)CC2` [Compound 95, N-hydroxy-6-(quinoline-6-carbonyl)-4,5,6,7-tetrahydrothieno[2,3-c]pyridine-2-carboxamide] registered a half-inhibitory concentration (IC50) of less than 50 nM. `Cc1ncsc1C(=O)N1CCc2cc(C(=O)NO)sc2C1` [Compound 98, N-hydroxy-6-[(4-methyl-1,3-thiazol-5-yl)carbonyl]-4,5,6,7-tetrahydrothieno[2,3-c]pyridine-2-carboxamide] had a half-inhibitory concentration (IC50) of less than 50 nM.
